SMILES strings stand for the structures. Converted amounts (≈) assume the structure as drawn. The source made the active and inactive calls. The rule behind the calls is not given here.

The results in this text go back to ChEMBL document CHEMBL4229518, “New β-lactam - Tetramic acid hybrids show promising antibacterial activities” (Bioorg Med Chem Lett, 2018).

Assay [1] has as its system Klebsiella pneumoniae. As to the kind of experiment: Antimicrobial activity against Klebsiella pneumoniae isolate SJ 1 after 18 to 20 hrs by microbroth dilution method. The class given is functional.
In assay [2] the test system is Escherichia coli. As to the kind of experiment: Antimicrobial activity against Escherichia coli isolate SJ 6 after 18 to 20 hrs by microbroth dilution method. In kind it is functional.
Assay [3] concerns Klebsiella pneumoniae. In words: Antimicrobial activity against Klebsiella pneumoniae isolate SJ 3 after 18 to 20 hrs by microbroth dilution method. In kind it is functional.
Assay [4] has as its system Escherichia coli. In words: Antimicrobial activity against Escherichia coli isolate SJ 2 after 18 to 20 hrs by microbroth dilution method. The class given is functional.
Assay [5] concerns Escherichia coli. As to the kind of experiment: Induction of proton motive force collapse in Escherichia coli BW25113 at 100 uM by flow cytometry. The class given is functional, organism-based.
Assay [6] concerns Acinetobacter baumannii. As to the kind of experiment: Antimicrobial activity against Acinetobacter baumannii ATCC 19606 after 18 to 20 hrs by microbroth dilution method. In kind it is functional. The conditions noted are these: ATCC 19606 = CIP 70.34 = JCM 6841.
The test system of assay [7] is Vero. In words: Cytotoxicity against African green monkey Vero cells. The class given is cell-based. The conditions noted are these: Chlorocebus sabaeus.
Assay [8] relates to HepG2. As to the kind of experiment: Cytotoxicity against human HepG2 cells. The class given is cell-based.
Assay [9] concerns Escherichia coli. In words: Antimicrobial activity against Escherichia coli ATCC 35218 expressing TEM-1 beta lactamases after 18 to 20 hrs by microbroth dilution method. The class given is functional.
Assay [10] concerns Klebsiella pneumoniae. In words: Antimicrobial activity against Klebsiella pneumoniae isolate SJ 2 after 18 to 20 hrs by microbroth dilution method. The class given is functional.
Assay [11] deals with Escherichia coli. As to the kind of experiment: Antimicrobial activity against Escherichia coli isolate SJ 3 after 18 to 20 hrs by microbroth dilution method. The class given is functional.
The subject of assay [12] is Pseudomonas aeruginosa. In words: Antimicrobial activity against Pseudomonas aeruginosa PAO1 after 18 to 20 hrs by microbroth dilution method. The class given is functional.
Assay [13] deals with Klebsiella pneumoniae. As to the kind of experiment: Antimicrobial activity against Klebsiella pneumoniae isolate SJ 5 after 18 to 20 hrs by microbroth dilution method. In kind it is functional.
For assay [14], the system named is Escherichia coli. In words: Antimicrobial activity against Escherichia coli isolate SJ 4 after 18 to 20 hrs by microbroth dilution method. In kind it is functional.
Assay [15] concerns Proteus mirabilis. In words: Antimicrobial activity against Proteus mirabilis ATCC 25933 after 18 to 20 hrs by microbroth dilution method. In kind it is functional.
In assay [16] the test system is Klebsiella pneumoniae. As to the kind of experiment: Antimicrobial activity against Klebsiella pneumoniae isolate SJ 4 after 18 to 20 hrs by microbroth dilution method. In kind it is functional.
In assay [17] the test system is Escherichia coli. As to the kind of experiment: Antimicrobial activity against Escherichia coli BW25113 after 18 to 20 hrs by microbroth dilution method. In kind it is functional.
Assay [18] deals with Klebsiella pneumoniae. As to the kind of experiment: Antimicrobial activity against Klebsiella pneumoniae ATCC 33495 after 18 to 20 hrs by microbroth dilution method. The class given is functional.
Assay [19] relates to Escherichia coli. In words: Antimicrobial activity against Escherichia coli isolate SJ 5 after 18 to 20 hrs by microbroth dilution method. In kind it is functional.
For assay [20], the system named is Escherichia coli. As to the kind of experiment: Antimicrobial activity against Escherichia coli isolate SJ 1 after 18 to 20 hrs by microbroth dilution method. In kind it is functional.
For assay [21], the system named is Escherichia coli. In words: Antimicrobial activity against Escherichia coli ATCC 25922 after 18 to 20 hrs by microbroth dilution method. In kind it is functional.
Assay [22] relates to Escherichia coli. As to the kind of experiment: Antimicrobial activity against tolC deficient Escherichia coli JW5503-1 after 18 to 20 hrs by microbroth dilution method. The class given is functional.
For assay [23], the system named is Staphylococcus aureus. In words: Potency index, ratio of cefaclor MIC to compound MIC for […] Staphylococcus aureus ATCC 29213. The class given is functional.
Assay [24] concerns Staphylococcus aureus. In words: Potency index, ratio of […] MIC to compound MIC for methicillin-resistant Staphylococcus aureus NRS70. In kind it is functional.
Assay [25] concerns Streptococcus pyogenes. As to the kind of experiment: Antimicrobial activity against Streptococcus pyogenes ATCC 700294 after 18 to 20 hrs by microbroth dilution method. The class given is functional. The conditions noted are these: M1 GAS.
Assay [26] concerns Staphylococcus aureus. In words: Potency index, ratio of […] MIC to compound MIC for […] Staphylococcus aureus ATCC 29213. The class given is functional.
Assay [27] relates to Stenotrophomonas maltophilia. In words: Antimicrobial activity against Stenotrophomonas maltophilia ATCC 700475 after 18 to 20 hrs by microbroth dilution method. The class given is functional.
The test system of assay [28] is Bacillus anthracis. As to the kind of experiment: Antimicrobial activity against Bacillus anthracis Sterne 34F2 after 18 to 20 hrs by microbroth dilution method. In kind it is functional.
Assay [29] deals with Staphylococcus aureus. In words: Antimicrobial activity against methicillin-susceptible Staphylococcus aureus ATCC 29213 after 18 to 20 hrs by microbroth dilution method. The class given is functional.
The test system of assay [30] is Enterococcus faecalis. In words: Antimicrobial activity against Enterococcus faecalis ATCC 33186 after 18 to 20 hrs by microbroth dilution method. The class given is functional.
The subject of assay [31] is Staphylococcus aureus. As to the kind of experiment: Potency index, ratio of cefaclor MIC to compound MIC for methicillin-resistant Staphylococcus aureus NRS70. The class given is functional.
The test system of assay [32] is Bacillus cereus. In words: Antimicrobial activity against Bacillus cereus ATCC 14579 after 18 to 20 hrs by microbroth dilution method. In kind it is functional.
In assay [33] the test system is Bacillus subtilis. In words: Antimicrobial activity against Bacillus subtilis ATCC 23857 after 18 to 20 hrs by microbroth dilution method. The class given is functional.
For assay [34], the system named is Staphylococcus aureus. In words: Antimicrobial activity against methicillin-susceptible Staphylococcus aureus NRS70 after 18 to 20 hrs by microbroth dilution method. The class given is functional.
Assay [35] has as its system Enterobacter cloacae. As to the kind of experiment: Antimicrobial activity against Enterobacter cloacae ATCC 13047 after 18 to 20 hrs by microbroth dilution method. The class given is functional. The conditions noted are these: subsp. cloacae ATCC 13047.
For assay [36], the system named is Streptococcus pneumoniae. In words: Antimicrobial activity against Streptococcus pneumoniae R6 after 18 to 20 hrs by microbroth dilution method. In kind it is functional.

Turning to `CO[C@@]1(NC(=O)CCCC(=O)C2=C(O)[C@@H](CCCNC(=N)N)NC2=O)C(=O)N2C(C(=O)O)=C(CSc3nnnn3C)CS[C@@H]21`, the MIC in assay [1] was 3.13 µg/mL (≈ 4.8 µM); in [2], 100 µg/mL (≈ 153 µM); in assay [3], 6.25 µg/mL (≈ 9.58 µM); in assay [4], 3.13 µg/mL (≈ 4.8 µM); in assay [6], above 200 µg/mL; in assay [9] it was 3.13 µg/mL (≈ 4.8 µM). Further, the MIC in assay [10] was 3.13 µg/mL (≈ 4.8 µM); in [11], 3.13 µg/mL (≈ 4.8 µM); in assay [12], above 200 µg/mL; in assay [13], 12.5 µg/mL (≈ 19.2 µM); in [14] it was 25 µg/mL (≈ 38.3 µM); in assay [15], 6.25 µg/mL (≈ 9.58 µM). Besides, the MIC in [16] is 6.25 µg/mL (≈ 9.58 µM); in [17] it was 6.25 µg/mL (≈ 9.58 µM); in assay [18] it was 6.25 µg/mL (≈ 9.58 µM); in assay [19], 12.5 µg/mL (≈ 19.2 µM); in [20] it was 3.13 µg/mL (≈ 4.8 µM); in assay [21], 3.13 µg/mL (≈ 4.8 µM). The same compound returned an MIC in assay [22] of 6.25 µg/mL (≈ 9.58 µM). For the same compound, in assay [5], the result was inactive. In addition, the IC50 in [7] and in assay [8] was above 200 µM in each case.
As for `CO[C@@]1(NC(=O)CCCC(=O)C2=C(O)[C@@H](CCC(=O)O)NC2=O)C(=O)N2C(C(=O)O)=C(CSc3nnnn3C)CS[C@@H]21`, the MIC in assay [1] is 100 µg/mL (≈ 160 µM); in assay [2], above 200 µg/mL; in [3] it was 200 µg/mL (≈ 320 µM); in assay [4] it was 200 µg/mL (≈ 320 µM); in assay [6], above 200 µg/mL; in [9] it was 50 µg/mL (≈ 79.9 µM). Also, the MIC was 25 µg/mL (≈ 40 µM) in assay [10]; 200 µg/mL (≈ 320 µM) in [11]; above 200 µg/mL in assay [12]; above 200 µg/mL in assay [13]; above 200 µg/mL in assay [14]; 50 µg/mL (≈ 79.9 µM) in assay [15]. Moreover, the MIC is 100 µg/mL (≈ 160 µM) in assay [16]; 200 µg/mL (≈ 320 µM) in assay [17]; 200 µg/mL (≈ 320 µM) in [18]; above 200 µg/mL in [19]; 200 µg/mL (≈ 320 µM) in [20]; 200 µg/mL (≈ 320 µM) in [21]. Moreover, in [22], it took 200 µg/mL (≈ 320 µM) to inhibit growth (MIC). Further, the result in assay [5] was inactive.
Consider `CC(=O)OCC1=C(C(=O)O)N2C(=O)[C@@H](NC(=O)CCNC(=O)C3=C(O)C(CC(C)C)NC3=O)[C@H]2SC1` (some centres not stated), for which the Ratio entry in assay [23], in assay [24], in [26] and in assay [31] was “>=16” each time. The MIC was 12.5 µg/mL (≈ 23.8 µM) in assay [25]; above 200 µg/mL in assay [27]; 25 µg/mL (≈ 47.7 µM) in assay [28]; 6.25 µg/mL (≈ 11.9 µM) in [29]; above 200 µg/mL in assay [6]; 200 µg/mL (≈ 381 µM) in assay [30]. Besides, the MIC is above 200 µg/mL in assay [12]; 200 µg/mL (≈ 381 µM) in [15]; above 200 µg/mL in assay [32]; above 200 µg/mL in assay [17]; 3.13 µg/mL (≈ 5.97 µM) in [33]; above 200 µg/mL in assay [18]. The MIC in assay [34] is 6.25 µg/mL (≈ 11.9 µM); in assay [35], above 200 µg/mL; in [36], 12.5 µg/mL (≈ 23.8 µM); in [22], above 200 µg/mL.
In the case of `C=CC1=C(C(=O)O)N2C(=O)[C@@H](NC(=O)CCNC(=O)C3=C(O)C(CC(C)C)NC3=O)[C@H]2SC1` (some centres not stated), the Ratio in [23] came out at 32; in assay [24], 64; in assay [26], 64; in assay [31], 32. The MIC in assay [25] is 12.5 µg/mL (≈ 26.1 µM); in assay [27], above 200 µg/mL; in assay [28], 6.25 µg/mL (≈ 13.1 µM); in [29], 3.13 µg/mL (≈ 6.54 µM); in assay [6] it was above 200 µg/mL; in assay [30], above 200 µg/mL. Besides, the MIC is above 200 µg/mL in assay [12]; 100 µg/mL (≈ 209 µM) in assay [15]; above 200 µg/mL in assay [32]; above 200 µg/mL in assay [17]; 6.25 µg/mL (≈ 13.1 µM) in assay [33]; above 200 µg/mL in assay [18]. Also, the MIC in assay [34] was 3.13 µg/mL (≈ 6.54 µM); in assay [35] it was above 200 µg/mL; in [36] it was 6.25 µg/mL (≈ 13.1 µM); in assay [22], above 200 µg/mL.
In the case of `CO[C@@]1(NC(=O)CCCC(=O)C2=C(O)[C@@H](CC(C)C)NC2=O)C(=O)N2C(C(=O)O)=C(CSc3nnnn3C)CS[C@@H]21`, the MIC was 12.5 µg/mL (≈ 20.5 µM) in assay [1]; above 200 µg/mL in [2]; 50 µg/mL (≈ 82 µM) in assay [3]; 200 µg/mL (≈ 328 µM) in [4]; above 200 µg/mL in [6]; 50 µg/mL (≈ 82 µM) in assay [9]. In addition, the minimum inhibitory concentration (MIC) in assay [10] was 50 µg/mL (≈ 82 µM); in assay [11] it was 100 µg/mL (≈ 164 µM); in assay [12] it was above 200 µg/mL; in [13] it was 200 µg/mL (≈ 328 µM); in [14], above 200 µg/mL; in assay [15], 12.5 µg/mL (≈ 20.5 µM). The MIC was above 200 µg/mL in assay [16]; 50 µg/mL (≈ 82 µM) in assay [17]; 100 µg/mL (≈ 164 µM) in assay [18]; 200 µg/mL (≈ 328 µM) in assay [19]; 100 µg/mL (≈ 164 µM) in [20]; above 200 µg/mL in [21]. The MIC in assay [22] amounted to 12.5 µg/mL (≈ 20.5 µM). Also, in assay [5], the result was inactive.
